Where a name gives a salt, the structure may show the parent alone. Read-outs that look alike come from different tables or passages of the source. Where only a bound is given, the exact number is not on record here.

Series [1] deals with nitrite production in human cartilage explants. Put plainly: Human cartilage explant assay (IL-1 induced nitrite production). It counts as cell-based. The note with it: inhibition of nitrite production, IL-1 stimulated explants. The protocol: Bone pieces are rinsed twice with Dulbecco's Phosphate Buffered Saline (GibcoBRL) and once with Dulbecco's Modified Eagles Medium (GibcoBRL) and placed into a petri dish with phenol red free Minimum Essential Medium (MEM) (GibcoBRL). Cartilage was cut into small explants of approximately 15-45 mg in weight and one or two explants per well are placed into either 96 or 48 well culture plates with 200-500 μL of culture media per well. The culture media was either a custom modification of Minimum Essential Medium(Eagle) with Earle's salts (GibcoBRL) prepared without L-Arginine, without L-Glutamine and without phenol red or a custom modification of serumless Neuman and Tytell (GibcoBRL) medium prepared without L-arginine, without insulin, without ascorbic acid, without L-glutamine and without phenol red. Both are supplemented before use with 100 μM L-Arginine (Sigma), 2 mM L-glutamine, 1× HL-1 supplement (BioWhittaker), […] ascorbic acid (Sigma) and 150 pg/ml recombinant human IL-1[…] (RD Systems) to induce nitric oxide synthase. Compounds are then added in 10 μL aliquots and the explants incubated at 37° C. with 5% CO2 for 18-24 hours. The day old supernatant is then discarded and replaced with fresh culture media containing recombinant human IL-1β and compound and incubated for another 20-24 hours. […] All samples are done in quadruplicate. Unstimulated controls are cultured in media in the absence of recombinant human IL-1 □. IC50 values (Table II) are determined from plotting the percent inhibition of nitrite production at six different concentrations of inhibitor.

In the next series the target is i-NOS (Homo sapiens, UniProt P35228). Put plainly: i-NOS inhibition, comparison with NIL amides.
i-NOS, sequence (P35228 whole entry): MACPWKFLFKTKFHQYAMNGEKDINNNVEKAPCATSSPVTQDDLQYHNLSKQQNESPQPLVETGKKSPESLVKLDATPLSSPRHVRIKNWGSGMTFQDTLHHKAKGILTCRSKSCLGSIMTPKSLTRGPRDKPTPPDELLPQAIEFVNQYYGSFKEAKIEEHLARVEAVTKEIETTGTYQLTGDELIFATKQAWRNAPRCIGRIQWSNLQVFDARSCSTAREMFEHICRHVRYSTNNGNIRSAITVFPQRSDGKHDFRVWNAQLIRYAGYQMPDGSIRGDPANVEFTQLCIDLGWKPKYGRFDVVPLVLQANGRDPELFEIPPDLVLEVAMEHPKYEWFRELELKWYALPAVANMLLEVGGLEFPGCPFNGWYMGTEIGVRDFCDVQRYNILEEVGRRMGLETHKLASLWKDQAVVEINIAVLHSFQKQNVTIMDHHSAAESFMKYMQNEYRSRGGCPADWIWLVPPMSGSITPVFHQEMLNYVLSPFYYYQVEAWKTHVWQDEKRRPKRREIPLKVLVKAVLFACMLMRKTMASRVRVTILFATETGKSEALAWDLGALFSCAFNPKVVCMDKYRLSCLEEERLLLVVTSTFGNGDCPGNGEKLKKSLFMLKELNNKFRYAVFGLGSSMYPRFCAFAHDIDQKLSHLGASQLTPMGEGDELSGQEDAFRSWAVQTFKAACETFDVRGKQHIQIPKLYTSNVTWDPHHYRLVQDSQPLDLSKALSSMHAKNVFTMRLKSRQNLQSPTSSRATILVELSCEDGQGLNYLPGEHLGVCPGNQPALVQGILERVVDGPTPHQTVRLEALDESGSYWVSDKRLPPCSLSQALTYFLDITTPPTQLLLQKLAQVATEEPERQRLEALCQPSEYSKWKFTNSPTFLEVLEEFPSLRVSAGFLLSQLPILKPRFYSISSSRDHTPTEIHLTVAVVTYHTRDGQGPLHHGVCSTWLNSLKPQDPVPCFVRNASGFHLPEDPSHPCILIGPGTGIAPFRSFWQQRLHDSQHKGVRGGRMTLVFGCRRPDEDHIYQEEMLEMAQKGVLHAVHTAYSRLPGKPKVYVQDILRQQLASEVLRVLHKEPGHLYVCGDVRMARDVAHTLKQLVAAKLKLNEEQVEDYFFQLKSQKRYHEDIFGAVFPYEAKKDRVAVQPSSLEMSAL
Series [2] concerns LPS-induced increase in plasma nitrite/nitrate levels. Nature of the series: In vivo assay: plasma nitrite/nitrate in endotoxin-treated rats. The note with it: oral administration, plasma nitrite/nitrate 5 hours post-treatment. How it is done: Plasma nitrite/nitrate levels can be determined 5 hours post-treatment.
For a further series, the system named is exhaled NO. Conditions: high doses; cited from earlier work.
Series [3] has as its system iNOS protein expression in human primary airway epithelial cells. Put plainly: Western blotting of iNOS from cultured epithelial cells. In kind it is cell-based. Conditions: cytokine-stimulated cells, various concentrations. How it is done:
Western blotting of iNOS from cultured epithelial cells: Following incubation with the cytokine mixture alone or with various concentrations of L-NIL, epithelial cells were lysed in 50 mM Tris/HCl, pH 7.4, containing 0.25 mM ethylene diaminotetraacetic acid, 0.5 mM phenylmethylsulfonyl fluoride, 5 μg/ml antipain, 5 μg/ml leupeptin and 5 μg/ml benzaminidine. The protein concentration was determined using the BioRad protein assay kit according to the manufacturer's instructions. Cell proteins were solubilized in sodium dodecyl sulfate polyacrylamide gel electrophoresis sample buffer ([…] Tris/HCl, pH 6.8, containing 10% v/v glycerol, 1% w/v SDS, 1% w/v β-mercaptoethanol, and 0.01% w/v bromophenol blue). The proteins (15 μg per lane) were resolved by electrophoresis in 3-8% (w/v) Tris-acetate SDS-polyacrylamide gels and transferred to Hybond-Enhanced Chemi-luminescence (ECL) nitro-cellulose membranes. Equal protein loading was determined by staining the blot with 0.1% (w/v) Ponceau S in 5% (v/v) acetic acid. The nitro-cellulose was then blocked overnight at 4° C. in 0.5M Tris-HCl,pH 7.4, containing 3% (w/v) normal goat serum, 1% (w/v) bovine serum albumin and 0.05% (v/v) Tween-20. […]
Media was harvested and measured for nitrite content (FIG. 1). […]

In series [4] the test system is human primary airway epithelial cells. Nature of the series: Nitrite in media of cytokine-stimulated human primary airway epithelial cells. Conditions: cells cultured 24 h with 50 ng/ml IL-1β, TNF-α and IFN-γ; read-out: IC50, inhibition of the increase in nitrite in the media. In kind it is cell-based. The protocol: Human primary airway epithelial cell cultures: Human primary airway epithelial cells were cultured as described previously (see Donnelly,L. E. and Barnes,P. J. Am J Respir Cell Mol.Biol 24:295-303 (2000)), and the amount of nitrite, the stable oxidation product of NO, in the cell culture media was measured using a modification of the spectrofluorometric method of Misko et al., Anal. Biochem. 4:11-16 (1993).
The protein was evenly distributed throughout the cytoplasm in basal cells but clearly located beneath the cilia in the columnar, ciliated cells. Treatment of airway epithelial cells with 50 ng/ml of IL-1β, TNF-α and IFN-γ (cytomix) for 24 h caused an induction of iNOS protein and an increase in the accumulation of nitrite in cell culture media from 2.20±0.2 μM in the absence of cytomix, to 3.5±0.4 μM in the presence of cytomix.
Media was harvested and measured for nitrite content (FIG. 1). Cellular proteins were resolved on 3-8% tris-acetate polyacrylamide gels and immunoblotted for iNOS protein (FIG. 2).

A further series has as its target PDE V (Homo sapiens, UniProt O76074). Conditions: printed only as numerator of 8/0.0008; cited from earlier work.
Series [5] concerns T1, PDE IV.
T1 construct: other: Hatzelmann et al. 2001
Conditions: Hatzelmann et al. 2001; cited from earlier work.

For series [6], the system named is PDE IV. Nature of the series: PDE IV inhibition (Hatzelmann et al.).
Experimental: PDE inhibition is then determined by the presence or absence of substrate degradation products. […] The relative ability of an inhibitory compound to slow or prevent the degradation of tritiated cyclic nucleotides is one test that is indicative of how well the compound in question selects one or more of each isoform to inhibit.
In practice, the in vitro selectivity of a PDE IV inhibitor may vary depending upon the condition under which the test is performed and on the inhibitors being tested. However, for the purposes of this specification, the selectivity of a PDE IV inhibitor can be measured as a ratio of the in vitro IC50 value for inhibition of any other isoform of the phosphodiesterase enzyme (Z) other than PDE IV, divided by the IC50 value for inhibition of PDE IV (PDE Z IC50/PDE IV IC50), where Z identifies any PDE other than PDE IV.
For another series, the system named is PDE I. The note with it: Hatzelmann et al. 2001; cited from earlier work.
[7] abbreviates: Rattus norvegicus, read-out: ED50.

Consider `CC(=N)NCC(F)=CCC[C@H](N)C(=O)O` (mixture of isomers) [Example B, (2S,5E/Z)-2-amino-6-fluoro-7-[(1-iminoethyl)amino]-5-heptenoic acid, dihydrochloride], for which the IC50 in series [1] (Homo sapiens) was determined as 0.2 µM. As to `CC(=N)NCCCC[C@H](N)C(=O)Nc1nnn[nH]1` [Example 1, 2S-amino-6-[(1-iminoethyl)amino]-N-(1H-tetrazol-5-yl)hexanamide, hydrate, dihydrochloride], the “selectivity compared with NIL amide or NIL dimethylamide” value at i-NOS is recorded as “more selective”. For the compound `CC(=N)NC/C(F)=C\CC[C@H](N)C(=O)O` [Example A, (2S,5E)-2-amino-6-fluoro-7-[(1-iminoethyl)amino]-5-heptenoic acid, dihydrochloride], the results for the ED50 in series [2] (setting [7]) and in series [2] (dihydrochloride) were < 0.1 mg/kg and <0.1 mg/kg, respectively. In series [1] (Homo sapiens), this compound had an IC50 of 0.1 µM. `CC(=N)NC/C(F)=C/CC[C@H](N)C(=O)O` [Example D, (2S,5Z)-2-amino-6-fluoro-7-[(1-iminoethyl)amino]-5-heptenoic acid, trihydrochloride, dihydrate]: in series [2] (setting [7]), the ED50 is > 10 mg/kg. The same compound showed an IC50 in series [1] (Homo sapiens) of 2.5 µM. `CC(=NO)NC/C(F)=C\CC[C@H](N)C(=O)O` [Example G, (2S,5E)-2-amino-6-fluoro-7-[(1-hydroximinoethyl)amino]-5-heptenoic acid] came in with a melting point of 198 to 200 °C. Besides, the ED50 in series [2] (setting [7]) is < 0.1 mg/kg.

For `CC(=N)NC/C(F)=C\CC[C@H](N)C(=O)Nc1nnn[nH]1` [Example H, (2S,5E)-2-amino-6-fluoro-7-[(1-iminoethyl)amino]-N-(1H-tetrazol-5-yl) 5-heptenamide, dihydrochloride], the 50% effective dose (ED50) in [2] (setting [7]) was < 0.3 mg/kg.

Regarding `CC(=N)NC/C(F)=C\CC[C@](C)(N)C(=O)O.Cl.Cl` [Example HH, (2S,5E)-2-amino-2-methyl-6-fluoro-7-[(1-iminoethyl)amino]-5-heptenoic acid, dihydrochloride], the ED50 in [2] (setting [7]) is 0.4 mg/kg. The same compound came in with an IC50 in series [1] (Homo sapiens) of 0.4 µM. With `COC[C@](N)(CSCCNC(C)=N)C(=O)O` [Example J, 2-[[[2-[(1-Iminoethyl)amino]ethyl]thio]methyl]-O-methyl-D-serine, dihydrochloride], the IC50 in series [1] amounted to 8.2 µM. As to `CC(=N)NC/C=C\CC[C@](C)(N)C(=O)O.Cl.Cl` [Example LL, (2S,5Z)-2-amino-2-methyl-7-[(1-iminoethyl)amino]-5-heptenoic acid, dihydrochloride], in series [2] (setting [7]), the ED50 was 0.3 mg/kg. Also, half-maximal inhibition in series [1] (Homo sapiens) (IC50) was put at 0.8 µM. In the case of `N=C1CCCC[C@H](CCCC[C@@H](N)C(=O)O)N1` [Example V, (α,2S)-.α-aminohexahydro-7-imino-1H-azepine-2-hexanoic acid, trihydrate hydrochloride], the ED50 in series [2] (setting [7]) was < 3 mg/kg. Moreover, the concentration for half-maximal inhibition (IC50) in [1] (Homo sapiens) was < 10 µM.

`N=C1CCCC[C@@H](CCCC[C@H](N)C(=O)O)N1` [Example W, (αS,2R)-α-aminohexahydro-7-imino-1H-azepine-2-hexanoic acid, trihydrate hydrochloride]: in series [1] (Homo sapiens), the IC50 is > 30 µM.

Regarding `N=C1CCCC[C@H](CCCC[C@H](N)C(=O)O)N1` [Example X, (αS,2S)-α-aminohexahydro-7-imino-1H-azepine-2-hexanoic acid, trihydrate hydrochloride], in series [1], the 50% inhibitory concentration (IC50) is < 10 µM. Take `Cl.N=C1CCCC[C@H](CCCC[C@@H](N)C(=O)O)N1.O.O.O` [Example Y, (αR,2S)-α-aminohexahydro-7-imino-1H-azepine-2-hexanoic acid, trihydrate hydrochloride]: in series [2] (setting [7]), the ED50 is < 3 mg/kg. Take `N=C1CCCC[C@H](CCCC[C@H](N)C(=O)O)N1` [Example Z, (αS,2S)-α-aminohexahydro-7-imino-1H-azepine-2-hexanoic acid, trihydrate hydrochloride]: the IC50 in series [1] (Homo sapiens) was < 10 µM. On to `COC(=O)[C@@H](N)CCCNC(=N)N[N+](=O)[O-]` [L-NAME], for which the “inhibition of exhaled NO” value in the series on exhaled NO is listed as “approximately 70%”. As for `CC(=N)NCCCC[C@H](N)C(=O)O` [L-NIL], the “effect on iNOS expression as detected by immunoblotting” value in series [3] is “did not affect iNOS expression”. Further, in [4], the IC50 is ~5.7 µM. Turning to `N=C(N)NN` [amino-guanidine], the “inhibition of exhaled NO” value with exhaled NO was “approximately 70%”.

`O=C(Nc1c(Cl)cncc1Cl)c1ccc(OC(F)F)c(OCC2CC2)c1` [roflumilast]: the values for the IC50 at PDE V, in the series on PDE IV [5] and with PDE I were 8 µM, 0.0008 µM and > 10 µM, respectively. In addition, the “selectivity for PDE IV as compared with PDE I” value in the series with PDE IV [6] (PDE I IC50/PDE IV IC50) is given as “at least 12,500”. The “selectivity for PDE IV as compared with PDE V” value with PDE IV [6] (PDE V IC50/PDE IV IC50) is recorded as “at least 10,000”.

The record behind these values is US20040087653A1, “Methods for the treatment of respiratory diseases and conditions with a selective iNOS inhibitor and a PDE inhibitor and compositions therefor” (priority 2002, published 2004).
